Laboratory results published in ChEMBL document CHEMBL1909046, “DrugMatrix in vitro pharmacology data”.

Tests used:
[1] = molecular target: Cannabinoid receptor 1 (Homo sapiens, UniProt P21554); assay type: cell membranes, Membrane; details: chem-1; further: in other assays of this panel Not Active means under 50% inhibition at 10 µM
[2] = molecular target: Carbonic anhydrase 2 (Homo sapiens, UniProt P00918); experiment: DRUGMATRIX: Carbonic Anhydrase II enzyme inhibition (substrate: 4-Nitrophenyl acetate (4-NPA)); assay type: tissue-based, Erythrocyte; details: erythrocyte; Not Active = under 50% inhibition at 10 µM
[3] = molecular target: T1, Endothelin-1 receptor (Homo sapiens, UniProt P25101); assay type: cell membranes, CHO-K1, Membrane; details: cho-k1; further: in other assays of this panel Not Active means under 50% inhibition at 10 µM
T1 sequence (P25101 whole entry): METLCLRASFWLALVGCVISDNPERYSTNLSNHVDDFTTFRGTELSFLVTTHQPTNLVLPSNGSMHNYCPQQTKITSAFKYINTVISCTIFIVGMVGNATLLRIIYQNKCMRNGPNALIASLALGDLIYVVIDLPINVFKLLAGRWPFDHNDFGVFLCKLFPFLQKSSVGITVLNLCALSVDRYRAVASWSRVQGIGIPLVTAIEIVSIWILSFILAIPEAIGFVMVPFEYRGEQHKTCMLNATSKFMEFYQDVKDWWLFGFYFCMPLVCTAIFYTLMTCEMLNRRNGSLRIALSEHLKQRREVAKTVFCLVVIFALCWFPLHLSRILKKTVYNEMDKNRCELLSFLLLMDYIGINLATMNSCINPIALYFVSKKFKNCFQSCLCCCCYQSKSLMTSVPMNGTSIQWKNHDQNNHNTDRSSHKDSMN

[4] = molecular target: T2, 3-hydroxy-3-methylglutaryl-coenzyme A reductase (Homo sapiens, UniProt P04035); design: species or system Escherichia coli;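 further: enzyme inhibition assay of HMG-CoA reductase using radiolabeled [14C]HMG-CoA as substrate; in other assays of this panel Not Active means under 50% inhibition at 10 µM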
T2 sequence (P04035 whole entry): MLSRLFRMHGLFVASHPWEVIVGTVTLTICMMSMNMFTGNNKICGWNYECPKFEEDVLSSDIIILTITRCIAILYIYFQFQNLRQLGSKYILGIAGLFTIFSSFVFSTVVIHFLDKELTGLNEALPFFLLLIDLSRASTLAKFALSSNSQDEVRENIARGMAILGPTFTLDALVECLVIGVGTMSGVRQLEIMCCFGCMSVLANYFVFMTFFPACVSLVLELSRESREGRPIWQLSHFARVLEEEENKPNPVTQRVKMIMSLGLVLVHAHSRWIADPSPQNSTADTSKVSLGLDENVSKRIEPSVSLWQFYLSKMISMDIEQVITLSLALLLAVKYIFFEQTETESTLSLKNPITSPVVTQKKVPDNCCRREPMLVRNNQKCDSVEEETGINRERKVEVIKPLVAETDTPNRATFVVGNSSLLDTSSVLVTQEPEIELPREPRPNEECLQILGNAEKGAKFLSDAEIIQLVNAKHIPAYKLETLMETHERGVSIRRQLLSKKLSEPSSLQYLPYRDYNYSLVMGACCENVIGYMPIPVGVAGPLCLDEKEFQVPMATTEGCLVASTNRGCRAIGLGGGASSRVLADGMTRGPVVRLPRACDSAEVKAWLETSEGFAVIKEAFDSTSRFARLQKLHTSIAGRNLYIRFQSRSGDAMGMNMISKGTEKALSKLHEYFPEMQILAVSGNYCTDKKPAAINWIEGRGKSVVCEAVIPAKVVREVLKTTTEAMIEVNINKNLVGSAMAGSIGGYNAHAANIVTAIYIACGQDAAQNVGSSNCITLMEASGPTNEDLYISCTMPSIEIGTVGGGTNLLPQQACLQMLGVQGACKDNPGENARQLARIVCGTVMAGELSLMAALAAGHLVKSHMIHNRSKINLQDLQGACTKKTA

[5] = molecular target: Delta-type opioid receptor (Homo sapiens, UniProt P41143); assay type: cell membranes, HEK293, Membrane; details: hek293; further: in other assays of this panel Not Active means under 50% inhibition at 10 µM
Delta-type opioid receptor, sequence (P41143 whole entry): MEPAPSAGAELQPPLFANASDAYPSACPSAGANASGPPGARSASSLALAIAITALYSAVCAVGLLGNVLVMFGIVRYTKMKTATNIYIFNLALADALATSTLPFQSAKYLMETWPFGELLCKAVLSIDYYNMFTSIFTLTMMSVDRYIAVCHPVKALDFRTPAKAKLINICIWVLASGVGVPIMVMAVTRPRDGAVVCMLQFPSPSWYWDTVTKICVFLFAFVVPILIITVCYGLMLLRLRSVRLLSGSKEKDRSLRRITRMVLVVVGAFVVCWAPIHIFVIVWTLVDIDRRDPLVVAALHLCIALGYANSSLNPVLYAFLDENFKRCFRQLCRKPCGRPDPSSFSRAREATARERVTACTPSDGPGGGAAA

[6] = DRUGMATRIX: Platelet-Derived Growth Factor (PDGF) radioligand binding (ligand: [125I] PDGF); assay type: cell-based; details: nih3t3; Not Active = under 50% inhibition at 10 µM
[7] = molecular target: Mitogen-activated protein kinase 1 (Homo sapiens, UniProt P28482); experiment: DRUGMATRIX: Protein Serine/Threonine Kinase, ERK2 enzyme inhibition (substrate: Myelin Basic Protein); design: species or system Escherichia coli; details: Not Active = under 50% inhibition at 10 µM
Mitogen-activated protein kinase 1, sequence (P28482 whole entry): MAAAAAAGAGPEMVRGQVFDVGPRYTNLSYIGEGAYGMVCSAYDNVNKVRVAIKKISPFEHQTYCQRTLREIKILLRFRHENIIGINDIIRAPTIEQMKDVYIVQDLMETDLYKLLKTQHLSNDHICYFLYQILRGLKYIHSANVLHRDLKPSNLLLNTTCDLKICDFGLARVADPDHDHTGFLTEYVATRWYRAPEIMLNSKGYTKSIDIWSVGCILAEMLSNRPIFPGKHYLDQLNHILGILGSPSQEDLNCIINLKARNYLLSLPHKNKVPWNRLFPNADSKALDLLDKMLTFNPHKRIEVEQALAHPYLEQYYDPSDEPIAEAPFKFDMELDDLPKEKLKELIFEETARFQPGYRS

[8] = molecular target: T3, Cytochrome P450 1A2 (Homo sapiens, UniProt P05177); details: bti-tn-5b1-4; further: in other assays of this panel Not Active means under 50% inhibition at 10 µM
T3 sequence (P05177 whole entry): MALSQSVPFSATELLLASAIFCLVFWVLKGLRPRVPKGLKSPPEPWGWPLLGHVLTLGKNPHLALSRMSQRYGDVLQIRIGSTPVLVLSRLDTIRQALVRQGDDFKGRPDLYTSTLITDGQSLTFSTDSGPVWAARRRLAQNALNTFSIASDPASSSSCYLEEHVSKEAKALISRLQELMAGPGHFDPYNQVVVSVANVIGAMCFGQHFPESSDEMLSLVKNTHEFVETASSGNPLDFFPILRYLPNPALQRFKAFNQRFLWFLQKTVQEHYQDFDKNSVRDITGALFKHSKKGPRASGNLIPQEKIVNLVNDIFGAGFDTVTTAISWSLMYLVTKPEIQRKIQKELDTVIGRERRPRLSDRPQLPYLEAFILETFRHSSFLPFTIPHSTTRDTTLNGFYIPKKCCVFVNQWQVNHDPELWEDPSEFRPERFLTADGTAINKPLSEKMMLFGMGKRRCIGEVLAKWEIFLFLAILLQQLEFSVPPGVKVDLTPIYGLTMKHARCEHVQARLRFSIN

[9] = molecular target: T4, Estrogen receptor (Homo sapiens, UniProt P03372); details: sf9; further: in other assays of this panel Not Active means under 50% inhibition at 10 µM
T4 sequence (P03372 whole entry): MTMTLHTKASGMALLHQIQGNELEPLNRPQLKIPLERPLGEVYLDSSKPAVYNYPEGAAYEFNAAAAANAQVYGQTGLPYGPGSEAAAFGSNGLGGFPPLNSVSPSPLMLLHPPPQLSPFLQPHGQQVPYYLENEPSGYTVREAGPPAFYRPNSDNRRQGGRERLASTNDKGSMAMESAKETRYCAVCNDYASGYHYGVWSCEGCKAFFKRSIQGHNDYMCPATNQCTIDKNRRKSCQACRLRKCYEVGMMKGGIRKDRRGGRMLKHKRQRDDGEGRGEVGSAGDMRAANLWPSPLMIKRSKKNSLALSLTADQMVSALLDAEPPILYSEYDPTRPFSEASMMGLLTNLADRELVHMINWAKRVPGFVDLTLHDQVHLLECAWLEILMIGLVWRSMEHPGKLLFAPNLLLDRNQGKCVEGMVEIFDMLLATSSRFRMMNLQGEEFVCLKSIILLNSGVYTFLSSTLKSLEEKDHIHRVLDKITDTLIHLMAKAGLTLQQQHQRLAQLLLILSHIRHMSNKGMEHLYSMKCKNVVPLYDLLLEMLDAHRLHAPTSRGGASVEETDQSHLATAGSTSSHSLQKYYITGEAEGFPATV

Cannabinoid receptor 1, sequence (P21554 whole entry): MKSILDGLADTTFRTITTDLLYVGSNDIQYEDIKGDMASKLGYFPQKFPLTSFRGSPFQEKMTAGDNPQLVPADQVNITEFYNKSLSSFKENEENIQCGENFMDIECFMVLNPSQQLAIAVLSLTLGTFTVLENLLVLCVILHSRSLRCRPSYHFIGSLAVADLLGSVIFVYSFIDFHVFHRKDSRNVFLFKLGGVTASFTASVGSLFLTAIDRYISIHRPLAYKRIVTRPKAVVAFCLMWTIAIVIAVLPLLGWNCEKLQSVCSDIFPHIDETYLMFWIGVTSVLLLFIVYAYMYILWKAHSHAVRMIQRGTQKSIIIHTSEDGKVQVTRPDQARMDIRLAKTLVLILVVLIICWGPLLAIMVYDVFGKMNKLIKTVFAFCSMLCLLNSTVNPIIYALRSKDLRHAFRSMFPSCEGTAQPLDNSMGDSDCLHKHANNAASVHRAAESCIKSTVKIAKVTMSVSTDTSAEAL

CC[C@@]1(O)C[C@H](O[C@H]2C[C@H](N(C)C)[C@H](O[C@H]3C[C@H](O)[C@H](O[C@H]4CCC(=O)[C@H](C)O4)[C@H](C)O3)[C@H](C)O2)c2c(cc3c(c2O)C(=O)c2c(O)cccc2C3=O)[C@H]1C(=O)OC [ACLARUBICIN]
Not Active: IC50 [1] | IC50 [2] | IC50 [3] | IC50 [4] | IC50 [5] | IC50 [6] | Ki [6] | IC50 [7] | IC50 [8] | Ki [8] | IC50 [9]

Nc1nc2c(ncn2COCCO)c(=O)[nH]1 [ACYCLOVIR]
Not Active: IC50 [1] | IC50 [2] | IC50 [3] | IC50 [4] | IC50 [5] | IC50 [6] | Ki [6] | IC50 [7] | IC50 [8] | Ki [8] | IC50 [9]

Cc1c(C)c2c(c(C)c1O)CC[C@@](C)(CCC[C@H](C)CCC[C@H](C)CCCC(C)C)O2 [ALPHA-TOCOPHEROL]
Not Active: IC50 [1] | IC50 [2] | IC50 [3] | IC50 [4] | IC50 [5] | IC50 [6] | Ki [6] | IC50 [7] | IC50 [8] | Ki [8] | IC50 [9]

NCCCCCC(=O)O [AMINOCAPROIC ACID]
Not Active: IC50 [1] | IC50 [2] | IC50 [3] | IC50 [4] | IC50 [5] | IC50 [6] | Ki [6] | IC50 [7] | IC50 [8] | Ki [8] | IC50 [9]

CCC1(c2ccc(N)cc2)CCC(=O)NC1=O (configuration not stated) [AMINOGLUTETHIMIDE]
Not Active: IC50 [1] | IC50 [2] | IC50 [3] | IC50 [4] | IC50 [5] | IC50 [6] | Ki [6] | IC50 [7] | IC50 [8] | Ki [8] | IC50 [9]

Cc1ccc(/N=C/N(C)/C=N/c2ccc(C)cc2C)c(C)c1 [AMITRAZ]
Not Active: IC50 [1] | IC50 [2] | IC50 [3] | IC50 [4] | IC50 [5] | IC50 [6] | Ki [6] | IC50 [7] | IC50 [8] | Ki [8] | IC50 [9]

CCOC(=O)C1=C(COCCN)NC(C)=C(C(=O)OC)C1c1ccccc1Cl (configuration not stated) [AMLODIPINE]
Not Active: IC50 [1] | IC50 [2] | IC50 [3] | IC50 [4] | IC50 [5] | IC50 [6] | Ki [6] | IC50 [7] | IC50 [8] | Ki [8] | IC50 [9]

COc1ccc(C[C@H]2NC[C@H](O)[C@H]2OC(C)=O)cc1 [ANISOMYCIN]
Not Active: IC50 [1] | Ki [1] | IC50 [2] | Ki [2] | IC50 [3] | Ki [3] | IC50 [4] | Ki [4] | IC50 [5] | Ki [5] | IC50 [6] | Ki [6] | IC50 [7] | Ki [7] | IC50 [8] | Ki [8] | IC50 [9] | Ki [9]

Nc1ncn([C@@H]2O[C@H](CO)[C@@H](O)[C@H]2O)c(=O)n1 [AZACITIDINE]
Not Active: IC50 [1] | IC50 [2] | IC50 [3] | IC50 [4] | IC50 [5] | IC50 [6] | Ki [6] | IC50 [7] | IC50 [8] | Ki [8] | IC50 [9]

CN(C)C(=O)Oc1cc(OC(=O)N(C)C)cc(C(O)CNC(C)(C)C)c1 (configuration not stated) [BAMBUTEROL]
Not Active: IC50 [1] | IC50 [2] | IC50 [3] | IC50 [4] | IC50 [5] | IC50 [6] | Ki [6] | IC50 [7] | IC50 [8] | Ki [8] | IC50 [9]

CC(C)C(Br)C(=O)NC(N)=O (configuration not stated) [BROMISOVALUM]
Not Active: IC50 [1] | IC50 [2] | IC50 [3] | IC50 [4] | IC50 [5] | IC50 [6] | Ki [6] | IC50 [7] | IC50 [8] | Ki [8] | IC50 [9]

CN(Cc1ccc(C(C)(C)C)cc1)Cc1cccc2ccccc12 [BUTENAFINE]
Not Active: IC50 [1] | IC50 [2] | IC50 [3] | IC50 [4] | IC50 [5] | IC50 [6] | Ki [6] | IC50 [7] | IC50 [8] | Ki [8] | IC50 [9]

O=C(O)CCCc1ccc(N(CCCl)CCCl)cc1 [CHLORAMBUCIL]
Not Active: IC50 [1] | IC50 [2] | IC50 [3] | IC50 [4] | IC50 [5] | IC50 [6] | Ki [6] | IC50 [7] | IC50 [8] | Ki [8] | IC50 [9]

C[C@H](CCC(=O)O)[C@H]1CC[C@H]2[C@@H]3[C@H](O)C[C@@H]4C[C@H](O)CC[C@]4(C)[C@H]3C[C@H](O)[C@]12C [CHOLIC ACID]
Not Active: IC50 [1] | IC50 [2] | IC50 [3] | IC50 [4] | IC50 [5] | IC50 [6] | Ki [6] | IC50 [7] | IC50 [8] | Ki [8] | IC50 [9]

Cc1cc(C2CCCCC2)n(O)c(=O)c1 [CICLOPIROX]
Not Active: IC50 [1] | IC50 [2] | IC50 [3] | IC50 [4] | IC50 [5] | IC50 [6] | Ki [6] | IC50 [7] | IC50 [8] | Ki [8] | IC50 [9]
